How the values were obtained:
[1] = target: JAK1 (Homo sapiens (Human), UniProt P23458); test: Biochemical JAK kinase assay (LanthaScreen), JAK1; conditions: read-out: JAK1 pKi (converted)
How it was run: (§1)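 LanthaScreen format: phospho-STAT1 (pTyr701) detected with 2 nM Tb antibody after 10 mM EDTA quench. Kinase step used Km-level ATP and 200 nM STAT1 peptide, 1 h at ambient after 1 h pre-incubation. Inhibition fitted to IC50, reported as pKi.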

[2] = target: JAK3 (Homo sapiens (Human), UniProt P52333); test: Biochemical JAK kinase assay (LanthaScreen), JAK3; conditions: read-out: JAK3 pKi (converted)
How it was run: as §1

[3] = tested on: IL-13 induced pSTAT6 in lung tissue; test: Murine model of IL-13 induced pSTAT6 induction in lung tissue; type: in vivo, mouse; conditions: balb/c mice, test compound 0.5 mg/mL, 50 μL by oral aspiration, IL-13 challenge eight hours later, lungs collected one hour after
Procedure: IL-13 binds to cell surface receptors activating members of the Janus family of kinases (JAK) which then phosphorylate STAT6 and subsequently activate further transcription pathways. In the described model, a dose of IL-13 was delivered locally into the lungs of mice to induce the phosphorylation of STAT6 (pSTAT6) which is then measured as the endpoint.
Adult balb/c mice from Harlan were used in the assay. On the day of study, animals were lightly anesthetized with isoflurane and administered either vehicle or test compound (0.5 mg/mL, […] total volume over several breaths) via oral aspiration.
Animals were placed in lateral recumbency post dose and monitored for full recovery from anesthesia before being returned to their home cage. Eight hours later, animals were once again briefly anesthetized and challenged with either vehicle or IL-13 (0.03 μg total dose delivered, 50 μL total volume) via oral aspiration before being monitored for recovery from anesthesia and returned to their home cage. One hour after vehicle or IL-13 administration, lungs were collected for both pSTAT6 detection using an AlphaLISA Immunoassay (PerkinElmer) and analyzed for total drug concentration.
Selected compounds of the present disclosure were tested in the assay. Activity in the model is evidenced by a decrease in the level of pSTAT6 present in the lungs of treated animals at 9 hours compared to the vehicle treated, IL-13 challenged control animals. The difference between the control animals which were vehicle-treated, IL-13 challenged and the control animals which were vehicle-treated, vehicle challenged dictated the 0% and 100% inhibitory effect, respectively, in any given experiment.

[4] = tested on: IL-13 induced STAT6 phosphorylation in BEAS-2B human lung epithelial cells; test: Cellular JAKI potency assay (BEAS-2B); type: cell-based; conditions: Homo sapiens, BEAS-2B, BEAS-2B cells, read-out: BEAS2B pIC50 (converted)
How it was run: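 AlphaLISA SureFire detection of Tyr641 pSTAT6 in lysates gave IC50s (4-parameter fit, expressed as pIC50). Cells: human BEAS-2B, exposed 1 h at 37 °C to compound dose series at 0.1% DMSO, then 30 min to IL-13 added at 80 ng/mL in HEPES-buffered HBSS with BSA.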

[5] = target: TYK2 (Homo sapiens (Human), UniProt P29597); test: Biochemical JAK kinase assay (LanthaScreen), Tyk2; conditions: read-out: Tyk2 pKi (converted)
How it was run: as §1

[6] = target: JAK2 (Homo sapiens (Human), UniProt O60674); test: Biochemical JAK kinase assay (LanthaScreen), JAK2; conditions: read-out: JAK2 pKi (converted)
How it was run: as §1

Sequence of JAK2 (O60674 whole entry): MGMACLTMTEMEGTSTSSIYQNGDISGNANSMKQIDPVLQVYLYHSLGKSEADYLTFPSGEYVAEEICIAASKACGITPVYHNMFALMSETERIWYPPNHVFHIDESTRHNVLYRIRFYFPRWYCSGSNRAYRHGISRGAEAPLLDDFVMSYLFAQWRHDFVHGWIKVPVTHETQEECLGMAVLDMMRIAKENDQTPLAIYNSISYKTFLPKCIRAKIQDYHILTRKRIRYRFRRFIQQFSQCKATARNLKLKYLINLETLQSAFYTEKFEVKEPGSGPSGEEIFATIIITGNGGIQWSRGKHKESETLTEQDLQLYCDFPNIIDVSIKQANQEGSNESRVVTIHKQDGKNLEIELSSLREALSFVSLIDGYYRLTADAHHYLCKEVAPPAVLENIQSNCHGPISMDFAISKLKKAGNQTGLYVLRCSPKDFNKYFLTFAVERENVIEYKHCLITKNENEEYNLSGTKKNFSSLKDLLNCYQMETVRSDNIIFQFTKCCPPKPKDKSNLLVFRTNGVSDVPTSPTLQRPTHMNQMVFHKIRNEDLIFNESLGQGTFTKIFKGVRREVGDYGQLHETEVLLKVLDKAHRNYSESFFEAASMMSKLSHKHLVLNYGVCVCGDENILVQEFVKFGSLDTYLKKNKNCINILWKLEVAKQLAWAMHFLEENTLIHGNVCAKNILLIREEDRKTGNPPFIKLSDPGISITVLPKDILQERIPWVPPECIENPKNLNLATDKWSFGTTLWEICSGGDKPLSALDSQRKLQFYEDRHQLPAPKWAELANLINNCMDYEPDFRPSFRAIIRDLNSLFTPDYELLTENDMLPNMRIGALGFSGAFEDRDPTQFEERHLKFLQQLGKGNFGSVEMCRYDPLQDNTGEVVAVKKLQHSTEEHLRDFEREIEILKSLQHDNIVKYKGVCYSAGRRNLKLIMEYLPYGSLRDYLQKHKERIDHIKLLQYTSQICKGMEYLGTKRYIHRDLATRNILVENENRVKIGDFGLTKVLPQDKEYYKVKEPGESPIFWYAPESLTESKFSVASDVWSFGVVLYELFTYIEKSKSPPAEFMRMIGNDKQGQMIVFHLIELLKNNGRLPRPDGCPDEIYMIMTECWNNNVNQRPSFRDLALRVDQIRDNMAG
Sequence of TYK2 (P29597 whole entry): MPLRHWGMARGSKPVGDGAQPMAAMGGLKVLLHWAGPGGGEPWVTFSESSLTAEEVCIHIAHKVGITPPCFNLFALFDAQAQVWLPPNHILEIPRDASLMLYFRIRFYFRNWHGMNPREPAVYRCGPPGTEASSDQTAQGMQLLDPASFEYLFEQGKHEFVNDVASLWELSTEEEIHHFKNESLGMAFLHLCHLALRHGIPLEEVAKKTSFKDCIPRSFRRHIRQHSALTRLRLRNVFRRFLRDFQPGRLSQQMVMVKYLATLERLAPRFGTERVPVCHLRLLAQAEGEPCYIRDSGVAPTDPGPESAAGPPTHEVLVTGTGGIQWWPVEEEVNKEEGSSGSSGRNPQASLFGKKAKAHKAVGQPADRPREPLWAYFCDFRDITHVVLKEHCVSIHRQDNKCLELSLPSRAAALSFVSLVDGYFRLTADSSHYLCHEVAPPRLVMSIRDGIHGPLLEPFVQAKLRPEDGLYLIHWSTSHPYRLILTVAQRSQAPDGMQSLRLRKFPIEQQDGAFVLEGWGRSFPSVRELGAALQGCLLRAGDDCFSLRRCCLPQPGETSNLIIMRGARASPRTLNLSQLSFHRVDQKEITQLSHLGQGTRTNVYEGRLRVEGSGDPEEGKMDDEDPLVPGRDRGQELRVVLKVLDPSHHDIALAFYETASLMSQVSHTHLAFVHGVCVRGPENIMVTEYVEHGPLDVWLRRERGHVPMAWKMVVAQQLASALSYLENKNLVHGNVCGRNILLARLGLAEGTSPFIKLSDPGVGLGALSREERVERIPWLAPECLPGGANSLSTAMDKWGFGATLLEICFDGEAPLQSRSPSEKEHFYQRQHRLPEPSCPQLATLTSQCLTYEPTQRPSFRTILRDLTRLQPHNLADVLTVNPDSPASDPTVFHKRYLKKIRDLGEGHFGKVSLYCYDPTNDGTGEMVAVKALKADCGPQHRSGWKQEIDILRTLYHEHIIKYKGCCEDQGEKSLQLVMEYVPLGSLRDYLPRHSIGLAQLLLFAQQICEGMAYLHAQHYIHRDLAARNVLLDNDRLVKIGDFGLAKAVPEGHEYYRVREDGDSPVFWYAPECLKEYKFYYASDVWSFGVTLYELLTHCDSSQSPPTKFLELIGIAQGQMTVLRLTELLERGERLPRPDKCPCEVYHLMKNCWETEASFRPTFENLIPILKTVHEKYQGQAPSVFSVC
Sequence of JAK3 (P52333 whole entry): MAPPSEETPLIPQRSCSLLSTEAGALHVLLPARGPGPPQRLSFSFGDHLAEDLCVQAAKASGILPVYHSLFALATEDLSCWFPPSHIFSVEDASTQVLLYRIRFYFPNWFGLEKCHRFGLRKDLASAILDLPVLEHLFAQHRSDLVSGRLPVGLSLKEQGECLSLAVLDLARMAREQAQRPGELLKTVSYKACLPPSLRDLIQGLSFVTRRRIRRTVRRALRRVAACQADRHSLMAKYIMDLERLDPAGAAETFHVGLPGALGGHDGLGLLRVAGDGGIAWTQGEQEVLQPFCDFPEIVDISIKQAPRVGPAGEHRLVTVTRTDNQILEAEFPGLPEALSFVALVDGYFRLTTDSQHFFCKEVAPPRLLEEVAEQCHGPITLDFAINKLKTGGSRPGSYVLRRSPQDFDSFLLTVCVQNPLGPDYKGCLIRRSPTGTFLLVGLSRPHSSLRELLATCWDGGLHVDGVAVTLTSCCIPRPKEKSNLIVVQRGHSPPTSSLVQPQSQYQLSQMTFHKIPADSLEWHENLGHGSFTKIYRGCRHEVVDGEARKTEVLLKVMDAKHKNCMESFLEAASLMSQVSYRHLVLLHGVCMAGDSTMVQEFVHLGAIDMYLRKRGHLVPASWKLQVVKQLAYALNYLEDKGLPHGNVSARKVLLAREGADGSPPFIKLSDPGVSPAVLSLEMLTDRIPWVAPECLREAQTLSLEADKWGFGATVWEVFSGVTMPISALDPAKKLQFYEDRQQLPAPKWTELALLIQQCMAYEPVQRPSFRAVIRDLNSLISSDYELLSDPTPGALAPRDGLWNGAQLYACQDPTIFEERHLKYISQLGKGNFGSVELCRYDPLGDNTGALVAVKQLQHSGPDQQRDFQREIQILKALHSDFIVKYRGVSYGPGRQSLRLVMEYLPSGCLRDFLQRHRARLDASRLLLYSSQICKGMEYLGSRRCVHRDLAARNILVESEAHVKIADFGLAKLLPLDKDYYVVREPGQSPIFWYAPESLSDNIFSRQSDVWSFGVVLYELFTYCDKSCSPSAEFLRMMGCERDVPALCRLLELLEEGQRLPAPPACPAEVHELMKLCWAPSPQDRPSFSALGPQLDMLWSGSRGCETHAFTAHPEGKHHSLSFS
Sequence of JAK1 (P23458 whole entry): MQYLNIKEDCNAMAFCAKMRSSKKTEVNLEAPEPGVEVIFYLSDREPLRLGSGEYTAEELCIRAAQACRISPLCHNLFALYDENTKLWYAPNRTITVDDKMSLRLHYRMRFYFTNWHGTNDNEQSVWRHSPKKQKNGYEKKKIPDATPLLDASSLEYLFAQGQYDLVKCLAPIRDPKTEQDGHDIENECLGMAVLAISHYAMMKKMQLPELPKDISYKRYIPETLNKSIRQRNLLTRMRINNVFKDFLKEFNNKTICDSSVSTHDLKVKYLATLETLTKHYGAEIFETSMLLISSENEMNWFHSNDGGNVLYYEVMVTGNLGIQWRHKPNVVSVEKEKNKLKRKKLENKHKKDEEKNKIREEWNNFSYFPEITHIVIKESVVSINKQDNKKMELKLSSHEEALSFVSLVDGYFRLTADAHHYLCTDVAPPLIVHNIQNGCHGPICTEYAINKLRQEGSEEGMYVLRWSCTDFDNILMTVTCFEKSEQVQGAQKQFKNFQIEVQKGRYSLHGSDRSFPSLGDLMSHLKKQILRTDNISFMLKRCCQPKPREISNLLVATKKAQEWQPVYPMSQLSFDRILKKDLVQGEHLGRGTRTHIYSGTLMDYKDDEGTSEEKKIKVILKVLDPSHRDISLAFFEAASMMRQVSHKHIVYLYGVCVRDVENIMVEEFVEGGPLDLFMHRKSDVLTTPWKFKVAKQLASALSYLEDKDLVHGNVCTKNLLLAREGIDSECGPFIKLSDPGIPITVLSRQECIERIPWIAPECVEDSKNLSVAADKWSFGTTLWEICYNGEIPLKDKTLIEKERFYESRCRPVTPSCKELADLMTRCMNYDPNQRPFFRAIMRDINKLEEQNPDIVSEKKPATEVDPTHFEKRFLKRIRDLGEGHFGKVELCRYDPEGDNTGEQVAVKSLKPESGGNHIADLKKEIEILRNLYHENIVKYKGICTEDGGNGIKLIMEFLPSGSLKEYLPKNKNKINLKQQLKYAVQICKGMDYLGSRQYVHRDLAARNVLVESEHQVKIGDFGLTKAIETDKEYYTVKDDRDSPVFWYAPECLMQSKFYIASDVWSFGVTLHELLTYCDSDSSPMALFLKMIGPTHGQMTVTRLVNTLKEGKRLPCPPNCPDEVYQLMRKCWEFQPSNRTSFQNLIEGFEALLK

SMILES	Ki [1]	Ki [2]	% pSTAT6 inhibition at 8 hours [3]	IC50 [4]	Ki [5]	Ki [6]
CCc1cc(O)ccc1-c1ccc2c(-c3nc(C4=CCNC4)c[nH]3)n[nH]c2c1F [Compound 1, 4-(3-(4-(2,5-dihydro-1H-pyrrol-3-yl)-1H-imidazol-2-yl)-7-fluoro-1H-indazol-6-yl)-3-ethylphenol]	0.1 to 1 nM	0.1 to 1 nM	A (A represents between 80% and 100% inhibition)	3.16 to 10 nM	1 to 10 nM	0.1 to 1 nM
CCc1cc(O)ccc1-c1ccc2c(-c3nc(C4=CCNCC4)c[nH]3)n[nH]c2c1F [Compound 2, 3-ethyl-4-(7-fluoro-3-(4-(1,2,3,6-tetrahydropyridin-4-yl)-1H-imidazol-2-yl)-1H-indazol-6-yl)phenol]	0.1 to 1 nM	1 to 10 nM	A (A represents between 80% and 100% inhibition)	3.16 to 10 nM	1 to 10 nM	0.1 to 1 nM
CCc1cc(O)ccc1-c1ccc2c(-c3nc(C4=CCNCC4)c[nH]3)n[nH]c2c1 [Compound 3, 3-ethyl-4-(3-(4-(1,2,3,6-tetrahydropyridin-4-yl)-1H-imidazol-2-yl)-1H-indazol-6-yl)phenol]	0.1 to 1 nM	1 to 10 nM	A (A represents between 80% and 100% inhibition)	3.16 to 10 nM	0.1 to 1 nM	0.1 to 1 nM

Source: patent US20240092758A1, “IMIDAZOLO INDAZOLE COMPOUNDS AS JAK INHIBITORS” (Theravance Biopharma R&D IP, LLC, priority 2021, published 2024)
